Data published in US20250171437A1 (Agios Pharmaceuticals,Inc., priority 2022, published 2025).

These compounds were tested against T1, human PAH with the R408W mutation (A375 R408W cells) (Homo sapiens, UniProt P00439, R408W) (assay: Cell Based Phenylalanine Flux Assay). Conditions: A375 R408W cells; 24 hrs with compound, then 20 μM sepiapterin and 800 μM 13C9,15N-Phenylalanine for 4 hours; 13C-Tyrosine by LC-MS; average where tested multiple times.
T1 construct: expressed in transfected cells
T1 sequence (P00439 1-452 R408W): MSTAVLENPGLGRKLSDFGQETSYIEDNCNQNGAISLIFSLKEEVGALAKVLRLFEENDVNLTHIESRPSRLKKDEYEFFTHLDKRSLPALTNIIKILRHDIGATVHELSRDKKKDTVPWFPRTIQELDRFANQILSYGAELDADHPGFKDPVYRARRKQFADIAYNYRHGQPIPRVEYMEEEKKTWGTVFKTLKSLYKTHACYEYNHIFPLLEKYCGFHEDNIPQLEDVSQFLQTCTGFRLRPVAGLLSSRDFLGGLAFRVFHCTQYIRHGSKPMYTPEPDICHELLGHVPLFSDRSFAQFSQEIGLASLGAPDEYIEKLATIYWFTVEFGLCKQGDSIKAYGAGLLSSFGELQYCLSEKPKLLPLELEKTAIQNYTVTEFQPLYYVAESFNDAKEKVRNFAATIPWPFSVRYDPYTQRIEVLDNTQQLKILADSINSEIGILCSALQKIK
In short: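 Puromycin-selected A375 line, lentiviral hPAH R408W; cmpd 24 h, 37 °C, 5% CO2, 0.5% DMSO; then 20 μM sepiapterin + 800 μM 13C9,15N-Phe, 4 h; media extracted in 80% MeCN; 13C-Tyr by LC-MS; AC50 from 10-pt curves.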

| AC50 [nM] | SMILES |
| --- | --- |
| 1000 to 5000 | Cn1nc(C(F)F)nc1C(=O)N1CCc2[nH]cnc2[C@@H]1c1nc2c(F)ccc(F)c2o1 [Example 485, (R)-(4-(4,7-difluorobenzo[d]oxazol-2-yl)-6,7-dihydro-1H-imidazo[4,5-c]pyridin-5(4H)-yl)(3-(difluoromethyl)-1-methyl-1H-1,2,4-triazol-5-yl)methanone] |
| 1000 to 5000 | COc1ccc2oc([C@H]3c4nc[nH]c4CCN3C(=O)c3oc(C(C)(C)O)nc3C(F)F)nc2c1 [Example 340, (R)-(4-(difluoromethyl)-2-(2-hydroxypropan-2-yl)oxazol-5-yl)(4-(5-methoxybenzo[d]oxazol-2-yl)-6,7-dihydro-1H-imidazo[4,5-c]pyridin-5(4H)-yl)methanone] |
| ≤ 500 | CC(C)(O)c1nc(C(F)F)c(C(=O)N2CCc3[nH]cnc3[C@H]2c2nc3ccccc3o2)o1 [Example 470, (S)-(4-(benzo[d]oxazol-2-yl)-6,7-dihydro-1H-imidazo[4,5-c]pyridin-5(4H)-yl)(4-(difluoromethyl)-2-(2-hydroxypropan-2-yl)oxazol-5-yl)methanone] |
| 500 to 1000 | O=C(c1cnn2cc(N3CCOCC3)c(Cl)cc12)N1CCc2[nH]cnc2[C@H]1c1nc2cc(F)ccc2o1 [Example 175, (S)-(5-chloro-6-morpholinopyrazolo[1,5-a]pyridin-3-yl)(4-(5-fluorobenzo[d]oxazol-2-yl)-6,7-dihydro-1H-imidazo[4,5-c]pyridin-5(4H)-yl)methanone] |
| 500 to 1000 | O=C(c1ocnc1C(F)F)N1CCc2[nH]cnc2[C@@H]1c1nc2cc(F)cc(F)c2o1 [Example 310, (R)-(4-(5,7-difluorobenzo[d]oxazol-2-yl)-6,7-dihydro-1H-imidazo[4,5-c]pyridin-5(4H)-yl)(4-(difluoromethyl)oxazol-5-yl)methanone] |
| 1000 to 5000 | Cc1cccc2nc([C@H]3c4nc[nH]c4CCN3C(=O)c3nnc(-c4ccccn4)o3)oc12 [Example 568, (R)-(4-(7-methylbenzo[d]oxazol-2-yl)-6,7-dihydro-1H-imidazo[4,5-c]pyridin-5(4H)-yl)(5-(pyridin-2-yl)-1,3,4-oxadiazol-2-yl)methanone] |
| 1000 to 5000 | COc1ccc2oc([C@H]3c4nc[nH]c4CCN3C(=O)c3nc(C(F)F)nn3C)nc2c1 [Example 550, (R)-(3-(difluoromethyl)-1-methyl-1H-1,2,4-triazol-5-yl)(4-(5-methoxybenzo[d]oxazol-2-yl)-6,7-dihydro-1H-imidazo[4,5-c]pyridin-5(4H)-yl)methanone] |
| 1000 to 5000 | Cn1nc(Cl)nc1C(=O)N1CCc2[nH]cnc2[C@@H]1c1nc2c(F)cccc2o1 [Example 278, (R)-(3-chloro-1-methyl-1H-1,2,4-triazol-5-yl)(4-(4-fluorobenzo[d]oxazol-2-yl)-6,7-dihydro-1H-imidazo[4,5-c]pyridin-5(4H)-yl)methanone] |
| 500 to 1000 | COc1ccc2oc([C@H]3c4nc[nH]c4CCN3C(=O)c3ocnc3C(F)F)nc2c1 [Example 342, (R)-(4-(difluoromethyl)oxazol-5-yl)(4-(5-methoxybenzo[d]oxazol-2-yl)-6,7-dihydro-1H-imidazo[4,5-c]pyridin-5(4H)-yl)methanone] |
| 1000 to 5000 | O=C(c1oc(C2(O)CCC2)nc1C(F)(F)F)N1CCc2[nH]cnc2[C@@H]1c1nc2cc(F)ccc2o1 [Example 586, (R)-(4-(5-fluorobenzo[d]oxazol-2-yl)-6,7-dihydro-1H-imidazo[4,5-c]pyridin-5(4H)-yl)(2-(1-hydroxycyclobutyl)-4-(trifluoromethyl)oxazol-5-yl)methanone] |
| 500 to 1000 | Cc1ccc2oc([C@H]3c4nc[nH]c4CCN3C(=O)c3oc(C(C)(C)O)nc3C(F)F)nc2c1 [Example 312, (R)-(4-(difluoromethyl)-2-(2-hydroxypropan-2-yl)oxazol-5-yl)(4-(5-methylbenzo[d]oxazol-2-yl)-6,7-dihydro-1H-imidazo[4,5-c]pyridin-5(4H)-yl)methanone] |
| ≤ 500 | Cc1cccc2nc([C@@H]3c4nc[nH]c4CCN3C(=O)c3cc(C(F)F)nn3C)oc12 [Example 735] |
| ≤ 500 | O=C(c1ccnn1C(F)F)N1CCc2[nH]cnc2[C@H]1c1nc2cccc(F)c2o1 [Example 195, (S)-(1-(difluoromethyl)-1H-pyrazol-5-yl)(4-(7-fluorobenzo[d]oxazol-2-yl)-6,7-dihydro-1H-imidazo[4,5-c]pyridin-5(4H)-yl)methanone] |
| ≤ 500 | COc1ccc2c(C(=O)N3CCc4[nH]cnc4[C@H]3c3nc4c(F)cccc4o3)cnn2c1 [Example 539, (S)-(4-(4-fluorobenzo[d]oxazol-2-yl)-6,7-dihydro-1H-imidazo[4,5-c]pyridin-5(4H)-yl)(6-methoxypyrazolo[1,5-a]pyridin-3-yl)methanone] |
| 1000 to 5000 | O=C(c1ocnc1C(F)(F)F)N1CCc2[nH]cnc2[C@@H]1c1nc2c(F)cccc2o1 [Example 168, (R)-(4-(4-fluorobenzo[d]oxazol-2-yl)-6,7-dihydro-1H-imidazo[4,5-c]pyridin-5(4H)-yl)(4-(trifluoromethyl)oxazol-5-yl)methanone] |
| 1000 to 5000 | [2H]C([2H])([2H])OCc1nc(C(F)F)c(C(=O)N2CCc3[nH]cnc3[C@@H]2c2nc3cc(F)ccc3o2)o1 [Example 156, (R)-(4-(difluoromethyl)-2-((methoxy-d3)methyl)oxazol-5-yl)(4-(5-fluorobenzo[d]oxazol-2-yl)-1,4,6,7-tetrahydro-5H-imidazo[4,5-c]pyridin-5-yl)methanone] |
| ≤ 500 | CC(C)(O)c1nc(C(F)F)c(C(=O)N2CCc3[nH]cnc3[C@H]2c2nc3cc(Br)cc(F)c3o2)o1 [Example 571, (S)-(4-(5-bromo-7-fluorobenzo[d]oxazol-2-yl)-6,7-dihydro-1H-imidazo[4,5-c]pyridin-5(4H)-yl)(4-(difluoromethyl)-2-(2-hydroxypropan-2-yl)oxazol-5-yl)methanone] |
| ≤ 500 | O=C(c1ocnc1C(F)F)N1CCc2[nH]cnc2[C@@H]1c1nc2cccc(Cl)c2o1 [Example 426, (R)-(4-(7-chlorobenzo[d]oxazol-2-yl)-6,7-dihydro-1H-imidazo[4,5-c]pyridin-5(4H)-yl)(4-(difluoromethyl)oxazol-5-yl)methanone] |
| ≤ 500 | Cn1ccc(-c2nc(C(F)F)c(C(=O)N3CCc4[nH]cnc4[C@H]3c3nc4ccccc4o3)o2)n1 [Example 761, (S)-(4-(benzo[d]oxazol-2-yl)-6,7-dihydro-1H-imidazo[4,5-c]pyridin-5(4H)-yl)(4-(difluoromethyl)-2-(1-methyl-1H-pyrazol-3-yl)oxazol-5-yl)methanone] |
| 1000 to 5000 | Cc1ncoc1C(=O)N1CCc2[nH]cnc2[C@@H]1c1nc2ccc(F)cc2o1 [Example 598, (R)-(4-(6-fluorobenzo[d]oxazol-2-yl)-6,7-dihydro-1H-imidazo[4,5-c]pyridin-5(4H)-yl)(4-methyloxazol-5-yl)methanone] |
| 1000 to 5000 | Cc1ccc2nc([C@H]3c4nc[nH]c4CCN3C(=O)c3nnc(-c4cc[nH]n4)o3)oc2c1 [Example 360, (R)-(5-(1H-pyrazol-3-yl)-1,3,4-oxadiazol-2-yl)(4-(6-methylbenzo[d]oxazol-2-yl)-6,7-dihydro-1H-imidazo[4,5-c]pyridin-5(4H)-yl)methanone] |
| ≤ 500 | CC(C)(C)c1nnc(C(=O)N2CCc3[nH]cnc3[C@H]2c2nc3c(F)ccc(F)c3o2)o1 [Example 852, (S)-(5-(tert-butyl)-1,3,4-oxadiazol-2-yl)(4-(4,7-difluorobenzo[d]oxazol-2-yl)-6,7-dihydro-1H-imidazo[4,5-c]pyridin-5(4H)-yl)methanone] |
| 1000 to 5000 | CN(C)c1cn2ncc(C(=O)N3CCc4[nH]cnc4[C@@H]3c3nc4cc(F)ccc4o3)c2cc1Cl [Example 208, (R)-(5-chloro-6-(dimethylamino)pyrazolo[1,5-a]pyridin-3-yl)(4-(5-fluorobenzo[d]oxazol-2-yl)-6,7-dihydro-1H-imidazo[4,5-c]pyridin-5(4H)-yl)methanone] |
| ≤ 500 | CC(C)(C)c1ncc(C(=O)N2CCc3[nH]cnc3[C@H]2c2nc3cc(F)ccc3o2)s1 [Example 17, (S)-(2-(tert-butyl)thiazol-5-yl)(4-(5-fluorobenzo[d]oxazol-2-yl)-6,7-dihydro-1H-imidazo[4,5-c]pyridin-5(4H)-yl)methanone] |
| 1000 to 5000 | Cn1cc(-c2nnc(C(=O)N3CCc4[nH]cnc4[C@@H]3c3nc4c(F)cccc4o3)o2)cn1 [Example 198, (R)-(4-(4-fluorobenzo[d]oxazol-2-yl)-6,7-dihydro-1H-imidazo[4,5-c]pyridin-5(4H)-yl)(5-(1-methyl-1H-pyrazol-4-yl)-1,3,4-oxadiazol-2-yl)methanone] |

Same assay, conditions: A375 cells expressing R408W PAH; 24 hrs with compound, then 20 μM sepiapterin and 800 μM 13C9,15N-Phenylalanine for 4 hours; 13C-Tyrosine by LC-MS; average where tested multiple times

| AC50 [nM] | SMILES |
| --- | --- |
| 1000 to 5000 | CC(C)(O)c1nc(C(F)F)c(C(=O)N2CCc3[nH]cnc3C2c2nc3cc(F)c(F)cc3o2)o1 (stereo not shown) |
| 1000 to 5000 | CC(C)(O)c1ncc(C(=O)N2CCc3[nH]cnc3C2c2nc3c(F)ccc(F)c3o2)o1 (stereo not shown) |
| ≥ 5000 | Cc1ncoc1C(=O)N1CCc2[nH]cnc2C1c1nc2cc(F)ccc2o1 (stereo not shown) |
| 1000 to 5000 | O=C(c1cnn2cc(N3CCC(O)CC3)ccc12)N1CCc2[nH]cnc2C1c1nc2ccccc2o1 (stereo not shown) |
| 1000 to 5000 | CC(C)(O)c1nc(C(F)F)c(C(=O)N2CCc3[nH]cnc3C2c2nc3cc(F)ccc3o2)s1 (stereo not shown) |
| 1000 to 5000 | CC(C)(O)c1ncc(C(=O)N2CCc3[nH]cnc3C2c2nc3c(F)c(F)ccc3o2)o1 (stereo not shown) |
